Reference: patent US7235585B2 (priority 2002, dated 2007)
Where two headings read alike, the source gives them in different places.

Experiments:
[1] = system: WiDr cells (a colon carcinoma cell line) engineered for stable expression of stCPG2(Q)3; settings: cited from earlier work
[2] = system: WiDr cells (a colon carcinoma cell line) engineered for stable expression of β-galactosidase (β-gal); settings: cited from earlier work
[3] = system: WiDr cells (a colon carcinoma cell line) engineered for stable expression of stCPG2(Q)3; assay: cells; assay type: cell-based; settings: for IC50: read-out: IC50 stCPG2(Q)3
[4] = buffer; for T1/2 prodrug: pH 7.3
[5] = system: WiDr cells (a colon carcinoma cell line) engineered for stable expression of β-galactosidase (β-gal); assay: cells; assay type: cell-based; settings: read-out: IC50 LacZ
[6] = biological target: CPG2 (Pseudomonas sp., UniProt P06621); assay type: biochemical, Pseudomonas R16
CPG2, sequence (P06621 23-415): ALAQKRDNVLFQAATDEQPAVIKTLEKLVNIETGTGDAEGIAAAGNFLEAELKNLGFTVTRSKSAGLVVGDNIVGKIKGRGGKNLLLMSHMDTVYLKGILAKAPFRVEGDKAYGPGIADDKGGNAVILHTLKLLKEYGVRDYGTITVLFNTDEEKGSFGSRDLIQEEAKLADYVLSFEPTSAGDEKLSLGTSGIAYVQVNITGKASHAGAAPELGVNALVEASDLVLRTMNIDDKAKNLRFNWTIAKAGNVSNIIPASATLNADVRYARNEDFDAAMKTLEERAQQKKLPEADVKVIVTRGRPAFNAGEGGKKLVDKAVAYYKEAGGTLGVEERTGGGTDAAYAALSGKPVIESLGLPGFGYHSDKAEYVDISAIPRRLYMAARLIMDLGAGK

Structure (SMILES)	IC50 [1] [µM]	IC50 [2] [µM]	Degree of activation (fold) [3] [fold]	T1/2 prodrug [4] [min]	IC50 [5] [µM]	differential in the transfected WiDr cell line [3] [fold]	differentials in the WiDr cell lines compared with CMDA [3]	IC50 [3] [µM]	T1/2 prodrug/T1/2 drug [4]	kcat [6] [s⁻¹]	IC50 ([5]; Homo sapiens, WiDr) [µM]	IC50 ([3]; Homo sapiens, WiDr) [µM]
CS(=O)(=O)OCCN(CCCl)c1ccc(C(=O)N[C@@H](CCC(=O)O)C(=O)O)cc1 [CMDA, N-{4-[(2-chloroethyl)(2-mesyloxyethyl)amino]benzoyl}-L-glutamic acid]	100	3230	32.3	–	–	–	–	–	–	–	–	–
O=C(O)CCC(NC(=O)Nc1ccc(COC(=O)Nc2ccccc2N(CCI)CCI)cc1)C(=O)O (centres unmarked) [CP-1]	–	–	49.7	2.7	149	50	better than those of CMDA	3	–	–	–	–
O=C(O)CCC(NC(=O)Nc1ccc(COC(=O)Nc2ccc(N(CCI)CCI)cc2)cc1)C(=O)O (centres unmarked) [CP-2]	–	–	101.6	0.97	180	–	better than those of CMDA	1.8	1.9	–	–	–
O=C(O)CCC(NC(=O)Nc1ccc(COC(=O)Nc2ccccc2N(CCBr)CCBr)cc1)C(=O)O (centres unmarked) [CP-3]	–	–	24.9	3.0	118	25	–	4.7	3.5	–	–	–
O=C(O)CCC(NC(=O)Nc1ccc(COC(=O)Nc2ccc(N(CCBr)CCBr)cc2)cc1)C(=O)O (centres unmarked) [CP-4]	–	–	66.6	0.85	205	–	better than those of CMDA	3.1	0.4	–	–	–
O=C(O)CCC(NC(=O)Nc1ccc(COC(=O)Nc2ccccc2N(CCCl)CCCl)cc1)C(=O)O (centres unmarked) [CP-5]	–	–	4.7	107.5	21.1	–	–	4.5	13.9	2.92	–	–
O=C(O)CCC(NC(=O)Nc1ccc(COC(=O)Nc2ccc(N(CCCl)CCCl)cc2)cc1)C(=O)O (centres unmarked) [CP-6]	–	–	–	–	–	–	–	–	–	10 to 50	–	–
CS(=O)(=O)OCCN(CCOS(C)(=O)=O)c1ccccc1NC(=O)OCc1ccc(OC(=O)NC(CCC(=O)O)C(=O)O)cc1 (centres unmarked) [CP-7]	–	–	5.2	10.8	208	–	–	40	–	–	–	–
O=C(O)CCC(NC(=O)Oc1ccc(COC(=O)Nc2ccccc2N(CCI)CCI)cc1)C(=O)O (centres unmarked) [CP-8]	–	–	3.9	2.1	73.3	–	–	19	–	–	–	–
O=C(O)CCC(NC(=O)Oc1ccc(COC(=O)Nc2ccc(N(CCI)CCI)cc2)cc1)C(=O)O (centres unmarked) [CP-9]	–	–	42.5	0.98	53.6	–	better than those of CMDA	1.3	2.0	–	–	–
O=C(O)CCC(NC(=O)Oc1ccc(COC(=O)Nc2ccccc2N(CCBr)CCBr)cc1)C(=O)O (centres unmarked) [CP-10]	–	–	1.9	3.47	183	–	–	95.2	3.5	–	–	–
O=C(O)CCC(NC(=O)Oc1ccc(COC(=O)Nc2ccc(N(CCBr)CCBr)cc2)cc1)C(=O)O (centres unmarked) [CP-11]	–	–	38.3	0.9	99.7	–	better than those of CMDA	2.6	0.4	–	–	–
O=C(O)CCC(NC(=O)Oc1ccc(COC(=O)Nc2ccccc2N(CCCl)CCCl)cc1)C(=O)O (centres unmarked) [CP-12]	–	–	1.4	146.3	38.1	–	–	28.1	11.9	4.27	–	–
O=C(O)CCC(NC(=O)Oc1ccc(COC(=O)Nc2ccc(N(CCCl)CCCl)cc2)cc1)C(=O)O (centres unmarked) [CP-13]	–	–	–	–	–	–	–	–	–	<10	–	–
CS(=O)(=O)OCCN(CCCl)c1ccccc1NC(=O)OCc1ccc(OC(=O)NC(CCC(=O)O)C(=O)O)cc1 (centres unmarked) [CP-14]	–	–	5.2	10.0	148	–	–	28.5	–	–	–	–
CN(C(=O)OCc1ccc(OC(=O)NC(CCC(=O)O)C(=O)O)cc1)c1ccc(N(CCI)CCI)cc1 (centres unmarked) [CP-15]	–	–	8.3	4.6	21.5	–	–	2.6	7.7	–	–	–
CN(C(=O)OCc1ccc(OC(=O)NC(CCC(=O)O)C(=O)O)cc1)c1ccc(N(CCBr)CCBr)cc1 (centres unmarked) [CP-16]	–	–	7.5	2.7	27.2	–	–	3.6	1.0	–	–	–
CN(C(=O)OCc1ccc(OC(=O)NC(CCC(=O)O)C(=O)O)cc1)c1ccc(N(CCCl)CCCl)cc1 (centres unmarked) [CP-17]	–	–	11.5	173.6	19.6	–	–	1.7	20.6	4.32	–	–
CN(C(=O)OCc1ccc(NC(=O)NC(CCC(=O)O)C(=O)O)cc1)c1ccc(N(CCI)CCI)cc1 [Compound P-1, 4-{N-[4′-bis(2″-iodoethyl)amino-phenyl]-N-methyl-carbamoyl-oxymethyl}-phenyl-carbamoyl-L-glutamic acid]	–	–	124.0	–	–	–	better than those of CMDA	–	6.5	–	185	1.5
CN(C(=O)OCc1ccc(NC(=O)NC(CCC(=O)O)C(=O)O)cc1)c1ccc(N(CCBr)CCBr)cc1 [Compound P-2, 4-{N-[4′-bis(2″-bromoethyl)amino-phenyl]-N-methyl-carbamoyl-oxymethyl}-phenyl-carbamoyl-L-glutamic acid]	–	–	81.4	–	–	–	better than those of CMDA	–	1.0	–	332	4.1
CN(C(=O)OCc1ccc(NC(=O)NC(CCC(=O)O)C(=O)O)cc1)c1ccc(N(CCCl)CCCl)cc1 [Compound P-3, 4-{N-[4′-bis(2″-chloroethyl)amino-phenyl]-N-methyl-carbamoyl-oxymethyl}-phenyl-carbamoyl-L-glutamic acid]	–	–	15.9	–	–	–	–	–	20.9	5.50	39.7	2.5
